Tests used:
[1] = target: T1, Human PDGFRβ, cytoplasmic domain (GST-PDGFRβ) (Homo sapiens, UniProt P09619); assay: Human PDGFRβ biochemical inhibition assay (off-chip Mobility Shift Assay)
T1 construct: made in house
Description: Human PDGFRβ Biochemical Inhibition Assay
The compounds described herein were tested for the ability to inhibit activity of PDGFRβ which was achieved via use of an off-chip Mobility Shift Assay (MSA). Human PDGFRβ, cytoplasmic domain [557-1106 (end) amino acids of accession number NP_002600.1 (SEQ ID NO: 3)] was expressed as N-terminal GST-fusion protein (88 kDa) using baculovirus expression system (SEQ ID NO: 4). GST-PDGFRβ was purified by using glutathione sepharose chromatography. Test compounds were dissolved in and diluted with dimethylsulfoxide (DMSO) to achieve 1 mM concentration. Then the solution was further diluted 25-fold with assay buffer to make the final test compound solution. The reference compound, Staurosporine, used as the assay positive control was prepared similarly. The 4× compound solution/substrate (CSKtide, 1000 nM)/ATP (Km ATP)/Mg Metal (5 mM) was prepared with kit buffer (20 mM HEPES, 0.01% Triton X-100, 5 mM DTT, pH 7.5), and 2× kinase solution was prepared with assay buffer (20 mM HEPES, 0.01% Triton X-100, 1 mM DTT, pH 7.5). The 5 μL of 4× compound solution, […] of 4× Substrate/ATP/Metal solution, and […] of 2× kinase solution were mixed and incubated in a well of polypropylene 384 well microplate for 1 hour at room temperature. […] of Termination Buffer (QuickScout Screening Assist MSA; Carna Biosciences) was added to the well. The reaction mixture was applied to LabChip™ system (Perkin Elmer), and the product and substrate peptide peaks were separated and quantitated. The kinase reaction was evaluated by the product ratio calculated from peak heights of product(P) and substrate(S) peptides (P/(P+S)). The readout value of reaction control (complete reaction mixture) was set as a 0% inhibition, and the readout value of background (Enzyme(−)) was set as a 100% inhibition, then the percent inhibition of each test solution was calculated.
With respect to PDGFRβ activity: “+++” denotes an IC50 of less than 300 nM; “++” denotes an IC50 of from 300 nM to less than 1000 nM; and “+” denotes an IC50 of 1000 nM or more.

[2] = target: T2, Human PDGFRα, cytoplasmic domain (GST-PDGFRα) (Homo sapiens, UniProt P16234); assay: Human PDGFRα biochemical inhibition assay (off-chip Mobility Shift Assay)
T2 construct: made in house
T2 sequence (P16234 550-1089 T674I): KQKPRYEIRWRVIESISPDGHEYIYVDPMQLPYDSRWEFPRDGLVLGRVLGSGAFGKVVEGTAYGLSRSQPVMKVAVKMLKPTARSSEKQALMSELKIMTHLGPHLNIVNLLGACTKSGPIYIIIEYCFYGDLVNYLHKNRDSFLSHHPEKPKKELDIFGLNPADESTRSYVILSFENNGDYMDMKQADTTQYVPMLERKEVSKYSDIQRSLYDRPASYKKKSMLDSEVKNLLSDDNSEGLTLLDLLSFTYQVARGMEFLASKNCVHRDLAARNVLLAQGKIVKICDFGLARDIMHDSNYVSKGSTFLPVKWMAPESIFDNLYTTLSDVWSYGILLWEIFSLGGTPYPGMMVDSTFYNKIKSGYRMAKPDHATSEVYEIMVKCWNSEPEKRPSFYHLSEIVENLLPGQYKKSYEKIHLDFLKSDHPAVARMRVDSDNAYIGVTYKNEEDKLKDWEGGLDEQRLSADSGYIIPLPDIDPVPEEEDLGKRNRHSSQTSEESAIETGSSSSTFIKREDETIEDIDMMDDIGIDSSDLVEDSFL

T1 sequence (P09619 with tags, fused parts or gaps): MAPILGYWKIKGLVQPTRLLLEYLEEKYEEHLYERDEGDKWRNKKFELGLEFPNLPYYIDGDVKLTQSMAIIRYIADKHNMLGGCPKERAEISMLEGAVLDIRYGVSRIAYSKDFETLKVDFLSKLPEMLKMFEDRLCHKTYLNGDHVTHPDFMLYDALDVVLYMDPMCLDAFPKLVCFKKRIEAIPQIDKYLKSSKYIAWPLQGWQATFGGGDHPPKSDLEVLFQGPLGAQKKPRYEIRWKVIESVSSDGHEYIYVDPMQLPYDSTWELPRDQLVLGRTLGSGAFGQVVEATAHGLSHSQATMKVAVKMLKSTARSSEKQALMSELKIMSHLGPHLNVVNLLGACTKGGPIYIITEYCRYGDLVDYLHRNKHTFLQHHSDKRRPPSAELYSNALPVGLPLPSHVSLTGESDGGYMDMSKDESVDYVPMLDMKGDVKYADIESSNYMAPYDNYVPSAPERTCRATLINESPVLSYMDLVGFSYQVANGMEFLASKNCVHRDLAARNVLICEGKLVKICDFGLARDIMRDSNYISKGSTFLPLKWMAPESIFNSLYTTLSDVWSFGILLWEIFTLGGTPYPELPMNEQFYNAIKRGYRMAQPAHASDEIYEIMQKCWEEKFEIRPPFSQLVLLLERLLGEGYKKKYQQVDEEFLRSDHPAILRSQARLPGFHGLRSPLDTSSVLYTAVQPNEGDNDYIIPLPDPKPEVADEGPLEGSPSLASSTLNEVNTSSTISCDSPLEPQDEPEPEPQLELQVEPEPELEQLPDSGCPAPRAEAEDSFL

Row | SMILES | IC50 [1] | IC50 [2]
1 | CCn1cc2ncc(N[C@@H](C)c3cccc(NC(=O)c4ccc(CN5[C@@H]6CC[C@H]5CN(C)C6)c(C)c4)c3)nc2n1 [Compound 475, N-(3-((S)-1-((2-ethyl-2H-pyrazolo[3,4-b]pyrazin-6-yl)amino)ethyl)phenyl)-3-methyl-4-(((1R,5S)-3-methyl-3,8-diazabicyclo[3.2.1]octan-8-yl)methyl)benzamide] | < 300 nM | < 300 nM
2 | CCc1ccc(CC(=O)Nc2cccc([C@H](C)Nc3cnc4cn(CC)nc4n3)c2)nc1 [Compound 712, (S)-N-(3-(1-((2-ethyl-2H-pyrazolo[3,4-b]pyrazin-6-yl)amino)ethyl)phenyl)-2-(5-ethylpyridin-2-yl)acetamide] | ≥ 1000 nM | < 300 nM
3 | CCn1cc2ncc(N[C@@H](C)c3cccc(NC(=O)c4ccc(C=O)c(C)c4)c3)nc2n1 [Compound 401, (S)-N-(3-(1-((2-ethyl-2H-pyrazolo[3,4-b]pyrazin-6-yl)amino)ethyl)phenyl)-4-formyl-3-methylbenzamide] | < 300 nM | < 300 nM
4 | Cc1n[nH]c2ncc(N[C@@H](C)c3cccc(NC(=O)c4cncc(Cl)c4)c3)nc12 [Compound 533, (S)-5-chloro-N-(3-(1-((3-methyl-1H-pyrazolo[3,4-b]pyrazin-5-yl)amino)ethyl)phenyl)nicotinamide] | < 300 nM | < 300 nM
5 | CCn1cc2ncc(N[C@@H](C)c3cccc(NC(=O)Cc4ccncc4)c3)nc2n1 [Compound 644, (S)-N-(3-(1-((2-ethyl-2H-pyrazolo[3,4-b]pyrazin-6-yl)amino)ethyl)phenyl)-2-(pyridin-4-yl)acetamide] | ≥ 1000 nM | ≥ 1000 nM
6 | CCn1cc2ncc(N[C@@H](C)c3cccc(NC(=O)c4ccc(C5CC5)nc4)c3)nc2n1 [Compound 283, (S)-6-cyclopropyl-N-(3-(1-((2-ethyl-2H-pyrazolo[3,4-b]pyrazin-6-yl)amino)ethyl)phenyl)nicotinamide] | < 300 nM | < 300 nM
7 | Cc1c[nH]c2ncc(N[C@@H](C)c3cccc(NC(=O)c4cc(C(F)(F)F)nn4C)c3)nc12 [Compound 562, (S)-1-methyl-N-(3-(1-((7-methyl-5H-pyrrolo[2,3-b]pyrazin-2-yl)amino)ethyl)phenyl)-3-(trifluoromethyl)-1H-pyrazole-5-carboxamide] | 300 to 1000 nM | < 300 nM
8 | CCn1cc2ncc(N[C@@H](C)c3cccc(NC(=O)c4cnc(C(C)O)s4)c3)nc2n1 (stereo partly drawn) [Compound 381, N-(3-((S)-1-((2-ethyl-2H-pyrazolo[3,4-b]pyrazin-6-yl)amino)ethyl)phenyl)-2-(1-hydroxyethyl)thiazole-5-carboxamide] | 300 to 1000 nM | < 300 nM
9 | CCn1cc2ncc(N[C@@H](C)c3cc(NC(=O)Cc4ccc(C5CC5)cn4)ccc3F)nc2n1 [Compound 655, (S)-2-(5-cyclopropylpyridin-2-yl)-N-(3-(1-((2-ethyl-2H-pyrazolo[3,4-b]pyrazin-6-yl)amino)ethyl)-4-fluorophenyl) acetamide] | ≥ 1000 nM | < 300 nM
10 | C[C@H](Nc1cnc2cn[nH]c2n1)c1cccc(NC(=O)c2ccc(C(F)(F)F)nc2)c1 [Compound 99, (S)-N-(3-(1-((1H-pyrazolo[3,4 b]pyrazin-6-yl)amino)ethyl)phenyl)-6-(trifluoromethyl) nicotinamide] | < 300 nM | < 300 nM
11 | CCn1cc2ncc(N[C@@H](C)c3cccc(NC(=O)c4cnc(OC(C)C)c(C)c4)c3)nc2n1 [Compound 327, (S)-N-(3-(1-((2-ethyl-2H-pyrazolo[3,4-b]pyrazin-6-yl)amino)ethyl)phenyl)-6-isopropoxy-5-methylnicotinamide] | < 300 nM | < 300 nM

The remaining lines, values ahead:

Row | IC50 [1] | IC50 [2] | SMILES
12 | < 300 nM | < 300 nM | CCn1cc2ncc(N[C@@H](C)c3cc(NC(=O)Cc4cncc(Cl)c4)ccc3C)nc2n1 [Compound 673, (S)-2-(5-chloropyridin-3-yl)-N-(3-(1-((2-ethyl-2H-pyrazolo[3,4-b]pyrazin-6-yl)amino)ethyl)-4-methylphenyl)acetamide]
13 | < 300 nM | < 300 nM | Cc1cncc(C(=O)Nc2cccc([C@H](C)Nc3cnc4cccc(F)c4c3)c2)c1 [Compound 29, (S)-N-(3-(1-((5-fluoroquinolin-3-yl)amino)ethyl)phenyl)-5-methylnicotinamide]
14 | < 300 nM | < 300 nM | CCn1cc2ncc(N[C@@H](C)c3cc(NC(=O)c4ccc(OC(F)(F)F)nc4)ccc3F)nc2n1 [Compound 303, (S)-N-(3-(1-((2-ethyl-2H-pyrazolo[3,4-b]pyrazin-6-yl)amino)ethyl)-4-fluorophenyl)-6-(trifluoromethoxy)nicotinamide]
15 | < 300 nM | < 300 nM | Cc1cncc(C(=O)Nc2cccc([C@H](C)Nc3cnc4cn(-c5ccccc5)nc4n3)c2)c1 [Compound 434, (S)-5-methyl-N-(3-(1-((2-phenyl-2H-pyrazolo[3,4-b]pyrazin-6-yl)amino)ethyl)phenyl)nicotinamide]
16 | < 300 nM | < 300 nM | Cc1cncc(C(=O)Nc2cccc([C@H](C)Nc3cnc4cc(C)sc4c3)c2)c1 [Compound 18, (S)-5-methyl-N-(3-(1-((2-methylthieno[3,2-b]pyridin-6-yl)amino)ethyl)phenyl)nicotinamide]
17 | < 300 nM | < 300 nM | CCn1cc2ncc(N[C@@H](C)c3cccc(NC(=O)c4ccc(CN5CC6(COC6)C5)c(Cl)c4)c3)nc2n1 [Compound 415, (S)-4-((2-oxa-6-azaspiro[3.3]heptan-6-yl)methyl)-3-chloro-N-(3-(1-((2-ethyl-2H-pyrazolo[3,4-b]pyrazin-6-yl)amino)ethyl)phenyl)benzamide]
18 | < 300 nM | < 300 nM | COc1cc(C(=O)Nc2cccc([C@H](C)Nc3cnc4cnn(C)c4n3)c2)cnc1OC [Compound 205, (S)-5,6-dimethoxy-N-(3-(1-((1-methyl-1H-pyrazolo[3,4-b]pyrazin-6-yl)amino)ethyl)phenyl)nicotinamide]
19 | < 300 nM | < 300 nM | Cc1cc(C(=O)Nc2cccc([C@H](C)Nc3cnc4cnn(C)c4n3)c2)cnc1CN1CCSCC1 [Compound 244, (S)-5-methyl-N-(3-(1-((1-methyl-1H-pyrazolo[3,4-b]pyrazin-6-yl)amino)ethyl)phenyl)-6-(thiomorpholinomethyl) nicotinamide]
20 | < 300 nM | < 300 nM | CCn1cc2ncc(N[C@@H](C)c3cc(NC(=O)Cc4cc(C)c(Cl)cn4)ccc3C)nc2n1 [Compound 696, (S)-2-(5-chloro-4-methylpyridin-2-yl)-N-(3-(1-((2-ethyl-2H-pyrazolo[3,4-b]pyrazin-6-yl)amino)ethyl)-4-methylphenyl)acetamide]
21 | < 300 nM | < 300 nM | CCn1cc2ncc(N[C@@H](C)c3cccc(NC(=O)c4cnc(OC(C)C)c(Cl)c4)c3)nc2n1 [Compound 354, (S)-5-chloro-N-(3-(1-((2-ethyl-2H-pyrazolo[3,4-b]pyrazin-6-yl)amino)ethyl)phenyl)-6-isopropoxynicotinamide]
22 | < 300 nM | < 300 nM | CCn1cc2ncc(N[C@@H](C)c3cc(NC(=O)c4cnc(C)s4)ccc3F)nc2n1 [Compound 307, (S)-N-(3-(1-((2-ethyl-2H-pyrazolo[3,4-b]pyrazin-6-yl)amino)ethyl)-4-fluorophenyl)-2-methylthiazole-5-carboxamide]
23 | < 300 nM | < 300 nM | CCn1cc2ncc(N[C@@H](C)c3cc(NC(=O)c4cnc(N5CCN(C)CC5)c(Cl)c4)ccc3F)nc2n1 [Compound 456, (S)-5-chloro-N-(3-(1-((2-ethyl-2H-pyrazolo[3,4-b]pyrazin-6-yl)amino)ethyl)-4-fluorophenyl)-6-(4-methylpiperazin-1-yl) nicotinamide]
24 | < 300 nM | < 300 nM | C[C@H](Nc1cnc2cnn(C)c2n1)c1cccc(NC(=O)c2cnc(C3CC3)s2)c1 [Compound 140, (S)-2-cyclopropyl-N-(3-(1-((1-methyl-1H-pyrazolo[3,4-b]pyrazin-6-yl)amino)ethyl)phenyl)thiazole-5-carboxamide]
25 | < 300 nM | < 300 nM | Cc1cncc(C(=O)Nc2cccc([C@H](C)Nc3cnc4cnn(C5CCC5)c4n3)c2)c1 [Compound 178, (S)-N-(3-(1-((1-cyclobutyl-1H-pyrazolo[3,4-b]pyrazin-6-yl)amino)ethyl)phenyl)-5-methylnicotinamide]
26 | < 300 nM | < 300 nM | CCn1cc2ncc(N[C@@H](C)c3cccc(NC(=O)c4ccc(CN5CCN(C)CC5)c(C(F)F)c4)c3)nc2n1 [Compound 504, (S)-3-(difluoromethyl)-N-(3-(1-((2-ethyl-2H-pyrazolo[3,4-b]pyrazin-6-yl)amino)ethyl)phenyl)-4-((4-methylpiperazin-1-yl)methyl)benzamide]

— patent US20230102554A1 (GB002, INC., priority 2019, published 2023)
